From PubChem BioAssay AID977628 (Broad Institute, 2014) come the findings set out here.

Inconclusive results are not listed. Active and inactive are the calls of the source.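 How the source made its calls: active means compound lowering the normal-ribosome reporter at least twice as much as the humanized-ribosome reporter, growth loss under a set limit; inconclusive means no clear call, values can overlap the other calls; inactive means the rest.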 Some results are limits rather than exact numbers.

The first experiment relates to E. coli WT GFP strain growth, fluorescence, 24 h. Briefly: E. coli growth inhibition, wild-type GFP versus h24 humanized RFP strain, dose response, h24 mutant RFP vs wild-type GFP, cherry-pick (AID 977628).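 Further: wild-type GFP and h24 humanized RFP strains co-cultured 1 to 1 per well.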
Details: not given
A word on the AC50: it is the concentration at which the activity in the assay is half-maximal. Turning to `COCCCn1c(C)cc(C(=O)COC(=O)CCc2nc3ccccc3c(=O)[nH]2)c1C`, the AC50 was > 100 µM (inactive). For the molecule `COc1ccc(OC)c(N(CC(=O)Nc2ccccc2F)S(=O)(=O)c2ccccc2)c1`, the AC50 was > 100 µM (inactive). As for `O=C(Nc1ccc2c(c1)OCCO2)c1cccnc1Oc1ccc(Cl)cc1`, the AC50 was > 100 µM (inactive).

Turning to `COc1ccc2[nH]c3c(=O)n(CCCCC(=O)NCCC(C)C)c(=S)[nH]c3c2c1`, the AC50 is > 100 µM (inactive). The same measure, in the same setting: then `CCN(CC)CCN(C(=O)c1ccc2c(c1)OCCO2)c1nc2cc(C)cc(C)c2s1`, with > 100 µM (inactive). Still for that read-out and setting: the result for `O=C(NCc1nc2ccccc2[nH]1)c1ccc(S(=O)(=O)N2CCCC2)cc1` reads > 100 µM (inactive).

In the case of `COc1cccc(NC2=Nc3cccc4cccc2c34)c1`, the AC50 is > 100 µM (inactive). Same read-out and setting: the result for `Cc1nnn(C23C[C@@H]4C[C@@H](CC(C(=O)N5CCN(c6ccccc6)CC5)(C4)C2)C3)n1` reads > 100 µM (inactive); that for `Nc1nc(Nc2ccccc2F)nc(N2CCOCC2)c1[N+](=O)[O-]`, > 100 µM (inactive); that for `Cc1nc(Sc2ccccc2)c(C#N)c(C)c1[N+](=O)[O-]`, > 100 µM (inactive). Consider `CCc1nc2ccccc2n1CCc1ccccc1`, for which the AC50 is > 100 µM (inactive). On the same count and under the same terms, the result for `CSc1ccc(CN(C)CC(=O)NC(C)c2ccccc2)cc1` (configuration not stated) reads > 100 µM (inactive). With `O=C(CCC(=O)c1cccs1)OCC(=O)c1ccc(Cl)s1`, the AC50 was > 100 µM (inactive). Same read-out and setting: then `CCOc1ccc2nc(SCC(=O)Nc3cccc(S(=O)(=O)NC4=NCCCCC4)c3)[nH]c2c1`, with > 100 µM (inactive); and `CCN(CC)S(=O)(=O)c1cccc(NC(=O)CNc2cccc(S(=O)(=O)N3CCCC3)c2)c1`, with > 100 µM (inactive); and `Cc1sc(NC(=O)CN2CCOCC2)nc1-c1ccc2c(c1)CCN2S(=O)(=O)c1ccccc1`, with > 100 µM (inactive). In the case of `CC(C(=O)Nc1nc2ccccc2s1)n1cc([N+](=O)[O-])cn1` (configuration not stated), the AC50 is > 100 µM (inactive).

As for `CCCCNc1ccc2c(c1)OC[C@@H](Cc1ccccc1)NS2(=O)=O`, the AC50 is > 100 µM (inactive). Still for that read-out and setting: the result for `Cc1cccc(OCCC(=O)N(C)CC(=O)Nc2cccc3ccccc23)c1` reads > 100 µM (inactive).

As for `CC1=Nc2cc(C(=O)NCC3CCCO3)ccc2Sc2ccc(Br)cc21` (configuration not stated), the AC50 is > 100 µM (inactive).

Turning to `COc1cccc(C2c3cc4c(cc3OC(N3CCCC3)C2C)OCO4)c1O` (configuration not stated), the AC50 is > 100 µM (inactive). As to `Cc1cccc(NC(=O)c2sc3nc(-c4ccccc4)cn3c2C)n1`, the AC50 is > 100 µM (inactive). Same read-out and setting: then `COc1cc(NC(=O)C(c2ccccc2)c2ccccc2)c(C(=O)O)cc1OC`, with > 100 µM (inactive). As to `CC1C=Cc2ccccc2N1C(=O)c1ccccc1` (configuration not stated), the AC50 was > 100 µM (inactive). Turning to `CC(C)=C(c1ccc(Cl)cc1)c1c(N)ncnc1N`, the AC50 was > 100 µM (inactive). Same read-out and setting: the result for `CCOc1ccc2nc(NC(=O)CSc3nc(SC)ns3)sc2c1` reads > 100 µM (inactive); that for `O=C(Cn1cnc2ccccc21)c1ccc(Br)cc1`, > 100 µM (inactive); that for `COc1cc2nc(Nc3ccc(F)cc3)nc(N)c2cc1OC`, > 100 µM (inactive).

`O=C1c2ccccc2C(=O)N1CCc1c[nH]c2ccccc12`: the AC50 is > 100 µM (inactive). The same measure, in the same setting: the result for `Cc1ccc(N2C(=O)NC(NS(=O)(=O)c3ccccc3)(C(F)(F)F)C2=O)cc1C` (configuration not stated) reads > 100 µM (inactive). Same read-out and setting: then `COC(=O)c1cc(C(=O)c2c(C)cc3ccccn23)cc([N+](=O)[O-])c1`, with > 100 µM (inactive); and `O=C(CN1CCCCC1)Nc1ccccc1-c1ccccc1`, with > 100 µM (inactive); and `O=C(c1cnc(Cc2c[nH]c3ccccc23)c(I)c1)N1CCCCC1`, with > 100 µM (inactive). On the same count and under the same terms, then `Cc1ccc(C(=O)Nc2cccc(N(C)S(C)(=O)=O)c2)cc1S(=O)(=O)Nc1ccccc1`, with > 100 µM (inactive).

As for `COc1ccc(N2C(=O)C3C(C2=O)C3(c2ccccc2)c2ccccc2)cc1` (configuration not stated), the AC50 was > 100 µM (inactive). For `Cc1ccoc1C(=O)Nc1ccc2ccccc2c1`, the AC50 was > 100 µM (inactive).

Consider `O=C(c1ccccc1)N(c1ccccc1)c1nccc2ccccc12`, for which the AC50 was > 100 µM (inactive).

Consider `N#Cc1ccc(OCC(=O)N2CCN(S(=O)(=O)c3ccc(Cl)s3)CC2)cc1`, for which the AC50 was > 100 µM (inactive). Still for that read-out and setting: the result for `CC1(C(=O)NS(=O)(=O)c2ccc3c(c2)CCO3)CCN1C(=O)c1ccccc1CCc1ccccc1` (configuration not stated) reads > 100 µM (inactive); that for `CSC1=NCCN1C(=O)Cc1ccc(-c2ccccc2)cc1`, > 100 µM (inactive); that for `COc1ccc(CNc2ncnc3cc(OC)c(OC)cc23)cc1OC`, > 100 µM (inactive). Turning to `Cc1ccccc1-n1ncc2c1CC(C)(C)CC2NC(=O)CCN1Cc2ccccc2C1=O` (configuration not stated), the AC50 is > 100 µM (inactive). Same read-out and setting: then `COc1ccc(NS(=O)(=O)c2cc(NC(=O)CNC(=O)c3cccc(OC)c3)ccc2C)cc1`, with > 100 µM (inactive); and `O=C(C[C@H]1CC[C@@H]2[C@H](COC[C@@H](O)CN2C(=O)Nc2cc(Cl)cc(Cl)c2)O1)N1CCOCC1`, with > 100 µM (inactive). As to `Cc1cc2nc(SCC(=O)O)nc(C)c2cc1C`, the AC50 was > 100 µM (inactive). Consider `CCn1nc(C(=O)OCc2cccc(S(=O)(=O)N(C)C)c2)c2ccccc2c1=O`, for which the AC50 was > 100 µM (inactive).

Regarding `COc1ccc(OCC2c3cc(OC)c(OC)cc3CCN2C(=O)C(C)C)cc1` (configuration not stated), the AC50 is > 100 µM (inactive). Still for that read-out and setting: the result for `O=C(O)CCN(Cc1ccccc1)S(=O)(=O)c1ccccc1Cl` reads > 100 µM (inactive); that for `O=C(O)c1cc2ccc3ccccc3c2[nH]1`, > 100 µM (inactive); that for `Nc1nn(-c2ccccc2)c2ccc([N+](=O)[O-])cc12`, > 100 µM (inactive).

`CC1CCCN(c2ccc(C(=O)NCCc3ccccc3)cn2)C1` (configuration not stated): the AC50 is > 100 µM (inactive). As for `COc1ccc2c(c1)c(C(C)=O)c(C)n2CCc1ccc(OC)c(OC)c1`, the AC50 was > 100 µM (inactive). The same measure, in the same setting: the result for `N#Cc1ccc(C(=O)Nc2ccn(-c3ccccc3)n2)cc1` reads > 100 µM (inactive). As to `O=C(CCc1nc2ccccc2s1)OCC(=O)c1ccc[nH]1`, the AC50 was > 100 µM (inactive). Turning to `O=C(Cc1coc2ccc3ccccc3c12)NCc1ccccc1`, the AC50 is > 100 µM (inactive). The same measure, in the same setting: then `COc1ccc2nc(SCC(=O)Nc3ccccc3)[nH]c2c1`, with > 100 µM (inactive); and `O=C(c1cc(COc2ccc(F)cc2F)on1)N1CCCC(c2ccccc2)C1` (configuration not stated), with > 100 µM (inactive); and `COc1ccc(-c2csc3ncn(-c4ccc(C)cc4)c(=O)c23)cc1OC`, with > 100 µM (inactive). Turning to `CC(=O)N1CCOc2ccc(S(=O)(=O)N(C)c3ccc(C)cc3)cc21`, the AC50 is > 100 µM (inactive). Consider `CCOC(=O)C1CCCN(C(=O)c2csc(-c3ccc4c(c3)CCO4)n2)C1` (configuration not stated), for which the AC50 is > 100 µM (inactive). As to `CCC(=O)c1ccc(OCC(=O)Nc2nc(C)cs2)cc1`, the AC50 is > 100 µM (inactive).

The same experiment, now with this note: measured here: WT GFP, test 1.
For `COc1ccc2[nH]c3c(=O)n(CCCCC(=O)NCCC(C)C)c(=S)[nH]c3c2c1`, the AC50 is greater than 100 µM.
